Assay results taken from patent EP0056144A1, “Carboxylic acid derivatives, their preparation and use as pharmaceuticals” (Dr. Karl Thomae GmbH, priority 1981, dated 1982).

Experiments:
weiblichen Ratten = assay: Blood-sugar-lowering effect in fasted female rats (glucose by hexokinase method); type: in vivo; set-up: key: n.s.: statistisch nicht signifikant; settings: rats fasted 24 h
Source text: Die blutzuckersenkende Wirkung der zu untersuchenden Substanzen wurde an weiblichen Ratten eigener Zucht mit dem Gewicht von 180-220 g geprüft, welche 24 Stunden vor Versuchsbeginn nüchtern gesetzt wurden. Die zu untersuchenden Substanzen wurden unmittelbar vor Versuchsbeginn in 1,5%- iger Methylcellulose suspendiert und per Schlundsonde appliziert.
Die Blutentnahme erfolgte unmittelbar vor Substanzapplikation, sowie 1, 2, 3 und 4 Stunden danach jeweils aus dem retroorbitalen Venenplexus. Hiervon wurden jeweils 50 Fl mit 0,5 ml 0,33 N Perchlorsäure enteiweißt und zentrifugiert. Im überstand wurde Glukose nach der Hexokinase-Methode mit Hilfe eines Analysenphotometers bestimmt. Die statistische Auswertung erfolgte nach dem t-Test nach Student mit p = 0,05 als Signifikanzgrenze.
Die nachfolgende Tabelle enthält die gefundenen Werte in Prozent gegenüber Kontrolle: […]

[1] = system: weiblichen und männlichen Mäusen; assay: Acute toxicity in mice after a single oral dose; type: in vivo; settings: observation at least 7 days; for Tieren gestorben: single oral dose of 1 000 mg/kg; for orientierende Toxizität: single oral dose
Source text: Bei weiblichen und männlichen Mäusen eigener Zucht mit dem Gewicht von 20-26 g wurde die toxische Wirkung der Substanzen nach oraler Gabe (Suspension in 1%iger Methylcellulose) einer einmaligen Dosis bei einer Nachbeobachtungszeit von mindestens 7 Tagen geprüft. Die nachfolgende Tabelle enthält die gefundenen Werte: […]

[2] = 5 mg/kg by gavage, 1 hour after administration
[3] = 5 mg/kg by gavage, 2 hours after administration
[4] = 5 mg/kg by gavage, 3 hours after administration
[5] = 5 mg/kg by gavage, 4 hours after administration

Row | Compound | Blutzuckersenkende Wirkung, Werte in Prozent gegenüber Kontrolle (weiblichen Ratten; [2]) [Prozent] | Blutzuckersenkende Wirkung, Werte in Prozent gegenüber Kontrolle (weiblichen Ratten; [3]) [Prozent] | Blutzuckersenkende Wirkung, Werte in Prozent gegenüber Kontrolle (weiblichen Ratten; [4]) [Prozent] | Blutzuckersenkende Wirkung, Werte in Prozent gegenüber Kontrolle (weiblichen Ratten; [5]) [Prozent] | Tieren gestorben [1] [von 10] | orientierende Toxizität [1] | Blutzuckersenkende Wirkung, Werte in Prozent gegenüber Kontrolle (weiblichen Ratten; 25 mg/kg by gavage, 1 hour after administration) | Blutzuckersenkende Wirkung, Werte in Prozent gegenüber Kontrolle (weiblichen Ratten; 25 mg/kg by gavage, 2 hours after administration) | Blutzuckersenkende Wirkung, Werte in Prozent gegenüber Kontrolle (weiblichen Ratten; 25 mg/kg by gavage, 3 hours after administration) | Blutzuckersenkende Wirkung, Werte in Prozent gegenüber Kontrolle (weiblichen Ratten; 25 mg/kg by gavage, 4 hours after administration)
1 | O=C(O)c1ccc(CCNC(=O)c2cc(Cl)ccc2N2CCC3CCCC2C3)cc1 (stereo not drawn) [Substanz A, 4-[2-[2-(2-Azabicyclo[3.3.1]nonan-2-yl)-5-chlor-benzoyl-amino]-äthyl]benzoesäure] | -42 | -43 | -36 | -32 | – | – | – | – | – | –
2 | O=C(O)c1ccc(CCNC(=O)c2cc(F)ccc2N2CCCCCCCC2)cc1 [Substanz B, 4-[2-[5-Fluor-2-(octahydro-1H-azonino)-benzoylamino]äthyl]-benzoesäure] | -31 | -36 | -34 | -34 | – | – | – | – | – | –
3 | C[C@@H]1C[C@H](C)CN(c2ncc(Cl)cc2C(=O)NCCc2ccc(C(=O)O)cc2)C1 [Substanz C] | -37 | -39 | -40 | -38 | 0 | > 1 000 mg/kg | – | – | – | –
4 | Cc1ccc(N2CCCCCCCC2)c(C(=O)NCCc2ccc(C(=O)O)cc2)c1 [Substanz D, 4-[2-[5-Methyl-2-(octahydro-1H-azonino)-benzoylamino]-äthyl]-benzoesäure] | -30 | -34 | -35 | -26 | – | – | – | – | – | –
5 | CCNc1ccc(Cl)cc1C(=O)NCCc1ccc(C(=O)O)cc1 [Substanz E, 4-[2-(2-Äthylamino-5-chlor-benzoylamino)-äthyl]benzoesäure, reference compound] | – | – | – | – | – | – | n.s. | n.s. | n.s. | n.s.
6 | CCC(CC)C1CCN(c2ccc(Cl)cc2C(=O)O)CC1 [Substanz F, 5-Chlor-2-[4-(3-pentyl)-piperidino]benzoesäure] | – | – | – | – | 0 | > 1 000 mg/kg | – | – | – | –
